Measured values taken from PMC10146558, “Highly Cytotoxic Copper(II) Mixed-Ligand Quinolinonato Complexes: Pharmacokinetic Properties and Interactions with Drug Metabolizing Cytochromes P450” (Pharmaceutics, 2023).
Several values for one entry are separate records, joined by “and”; a condition that tells them apart may be missing. Identical values can stand only once. Like-named read-outs stand apart in the source and are kept apart here.

Columns and labels:
[1] = Stability in human plasma; format: in vitro ADME; conditions: 37 °C, 3.3 μM
Experimental: (§1) Pharmacological properties of the complexes 1 and 2, including stability in plasma, microsomal stability, binding to plasma proteins, and permeability through an artificial membrane, were tested under in vitro conditions and according to methods described in previous reports. Analysis of the samples was performed using Agilent RapidFire 300 High-Throughput Mass Spectrometry System (Agilent Technologies, Wakefield, MA, USA) with subsequent detection using the mass spectrometer Qtrap 5500 (AB Sciex, Concord, Toronto, ON, Canada), abbreviation RF-MS. The samples were aspirated directly from the plates into a 10 μL sample loop and passed through a C4 cartridge with solvent A (5% acetonitrile, 95% water, 0.1% formic acid) at a flow rate of 1.5 mL/min for 3 s. After the desalting step, analytes retained on the cartridge were eluted with solvent B (95% acetonitrile, 5% water, 0.1% formic acid) in the mass spectrometer at a flow rate of 0.4 mL/min for 5 s. The mass spectrometry of the samples was carried out using electrospray ionisation in the positive ion mode. Daughter ion peaks were identified using a multiple-reaction monitoring protocol.
(§2) The reaction was terminated by ice-cold methanol (chemical stability) or acetonitrile:methanol (2:1), and samples were left at −80 °C overnight (plasma stability). The solution was mixed and centrifuged (4000 rpm, 9 min, 4 °C). After lyophilization of supernatant, samples were dissolved in mobile phase with internal standard and analysed by RF/MS analysis.

[2] = tested on: human liver microsomal cytochrome P450s; conditions: pH 7.4
Experimental: (§3) The cuvette contained microsomes diluted to final concentration of CYP 1 µM in 50 mM potassium phosphate buffer (pH 7.4). The tested compounds were dissolved in the same buffer, and their concentrations in the experiments ranged from 0.002 to 33.310 µM. The UV-Visible spectra were recorded at room temperature by repetitive scanning between 300 and 700 nm using Varian 500 UV/VIS spectrophotometer (Agilent Technologies, Wakefield, MA, USA). Changes of absorbance in the range of the Soret’s region (380–450 nm) were plotted against the concentration of the studied compounds. Data were analysed using GraphPad Prism 6 software (La Jolla, CA, USA).

[3] = Parallel artificial membrane permeability assay (PAMPA); format: in vitro ADME; conditions: category according to log Papp
Experimental: Pharmacological properties of the complexes 1 and 2, including stability in plasma, microsomal stability, binding to plasma proteins, and permeability through an artificial membrane, were tested under in vitro conditions and according to methods described in previous reports. Analysis of the samples was performed using Agilent RapidFire 300 High-Throughput Mass Spectrometry System (Agilent Technologies, Wakefield, MA, USA) with subsequent detection using the mass spectrometer Qtrap 5500 (AB Sciex, Concord, Toronto, ON, Canada), abbreviation RF-MS. […]
PAMPA was performed with the Millipore MultiScreen filter MultiScreen-IP Durapore 0.45-μm plates and receiver plates (Merck Millipore, Burlington, MA, USA). […] The permeation of compounds across a filter membrane (activation by 10% lecithin in dodecane) was quantified by RF/MS after 18 h incubation at room temperature. The apparent permeability, logPe, was calculated from the following equation: logPe = log{C× − ln(1 − drugA/drugE)}; C = (VA × VD)/{(VD + VA) × A × T}, where VD and VA are the volumes of the donor and acceptor compartments, respectively; A is the active surface area of the membrane; T is the time of the incubation in seconds; and drugA or drugE represents the concentration of the tested compounds in the acceptor compartment and in the solution in theoretical equilibrium.

[4] = Chemical stability (stability in PBS); format: physicochemical; conditions: 1 × PBS pH 7.4, 37 °C, 7.4 µM
Experimental: as §1, §2

plasma proteins = assay: Plasma protein binding (rapid equilibrium dialysis); format: in vitro ADME, human; conditions: 10 μM in 50% plasma, 37 °C, 4 h
Experimental: as §1, with “The mass spectrometry of the samples was carried out using electrospray ionisation in the positive ion mode. Daughter ion peaks were identified using a multiple-reaction monitoring protocol.” left out
The fraction bound value was determined using the semipermeable membrane that separates a protein-containing compartment (R chamber) from a protein-free compartment (W chamber) (Rapid Equilibrium Dialysis, Thermo Scientific™, Rockford, IL, USA). […] Samples were dissolved in mobile phase containing internal standard and analysed on the RF/MS.

CYP3A4 = CYP3A4 (Homo sapiens, UniProt P08684); assay: Isothermal titration calorimetry, recombinant human CYP3A4; format: binding; design: purchased Sigma-Aldrich (Prague, Czech Republic); conditions: recombinant human CYP3A4, 25 °C; for n, CYP3A4: ITC stoichiometry, pH 7.4; for Ka, CYP3A4 / Kd / ΔG, CYP3A4 / ΔH, CYP3A4 / ΔS, CYP3A4: ITC, pH 7.4, 1% DMSO
Experimental: The interactions of the compounds with selected forms of cytochrome P450, i.e., human bactosomes CYP1A2, CYP2A6, CYP3A4, and recombinant human CYP3A4, were studied using isothermal titration calorimetry (ITC). ITC experiments were performed at 25 °C with a Nano ITC Low Volume (TA Instruments, New Castle, DE, USA). During all measurements, 20 injections of 16µM of the studied compound (2.5 µL each) were titrated into 250 µL of protein (2 µM) with time intervals of 300 s and a stirring speed of 250 rpm. All ITC experiments were conducted with degassed buffered solutions (100 mM phosphate buffer, pH 7.4) in the presence of 1% DMSO. Control experiments included the titration of each complex solution into a buffer. The corrected data refer to experimental data after subtraction of the buffer control data from the compounds data. The resulting thermograms were analysed using the “Independent” model within the NanoAnalyze software (TA Instruments, New Castle, DE, USA).

CYP2C19 = biological target: T1, CYP2C19 (Homo sapiens, UniProt P33261); assay: CYP2C19 activity ((S)-mephenytoin 4′-hydroxylation) in human liver microsomes; format: biochemical; conditions: for Type of inhibition, CYP2C19 / Ki: Dixon and Lineweaver–Burk plots; for Ki: substrate ½ Km to 4 Km; for IC50: human liver microsomes, (S)-mephenytoin 4′-hydroxylation
T1 construct: Cryopreserved pooled human liver microsomes were obtained from Xenotech; tissue Xenotech (Lenexa, KS, USA); host or cells: pooled human liver microsomes
Experimental: For each enzyme assay, the preliminary experiments to determine Michaelis constant (Km) and limiting velocity (Vmax) were performed to calculate the time of incubation (the specified time for which the reaction is still linear) and the values of substrate concentration (in the range corresponding to the value of Km).
The reaction mixtures were buffered by 0.1 M potassium phosphate buffer (pH 7.4) and contained a NADPH-generating system consisting of the isocitrate dehydrogenase (6 U/mL), NADP^+ (0.5 mM), isocitric acid (4 mM), and MgSO4 (5 mM). The final concentration levels of complexes were obtained by diluting a 10 mM solution with dimethyl sulfoxide (DMSO). It is known that DMSO can in some cases inhibit P450; the following measures were thus applied: (a) control samples containing organic solvent without the tested compounds were prepared and used as references; (b) DMSO levels were maintained below 0.1% to minimise the inhibition. Inhibition experiments were performed using five concentration levels of the tested compounds in the range of 10–100 µM. The maximum concentration was chosen so that in the case of inhibition, it would be possible to determine the inhibitory effect of the complexes and characterise them by determining the IC50 value. Additionally, an inhibitor-free control was used as a reference. Incubations were executed in two independent batches, and the samples were prepared and measured in triplicate at 37 °C. Analyses of the metabolites formed from the specific substrates were performed by HPLC using the Prominence system (Shimadzu, Kyoto, Japan) equipped with a LiChroCART 250-4 LiChrospher 100 RP-18 column, Chromolith® HighResolution RP-18 end-capped column (Merck, Darmstadt, Germany), or Kinetex Biphenyl column (Phenomenex, Torrace, CA, USA).
The apparent Ki values were determined by additional measurements using substrate concentrations corresponding to 1/2 Km, Km, 2 Km, and 4 Km in the case of inhibition. The type of model was selected on the basis of the Lineweaver–Burk and Dixon plots. The values of IC50 were obtained by analysing the plot of the percentage of activity remaining after inhibition versus the logarithm of the inhibitor concentration using the GraphPad Prism 6 software (La Jolla, CA, USA).

[5] = tested on: human liver microsomal cytochrome P450s; assay: Difference spectra (UV-visible spectral titration) with human liver microsomes; conditions: read-out: Ks (spectral binding constant); spectral differences at 386 nm, CYP 1 µM, pH 7.4, room temperature
Experimental: as §3

T1 sequence (P33261 whole entry): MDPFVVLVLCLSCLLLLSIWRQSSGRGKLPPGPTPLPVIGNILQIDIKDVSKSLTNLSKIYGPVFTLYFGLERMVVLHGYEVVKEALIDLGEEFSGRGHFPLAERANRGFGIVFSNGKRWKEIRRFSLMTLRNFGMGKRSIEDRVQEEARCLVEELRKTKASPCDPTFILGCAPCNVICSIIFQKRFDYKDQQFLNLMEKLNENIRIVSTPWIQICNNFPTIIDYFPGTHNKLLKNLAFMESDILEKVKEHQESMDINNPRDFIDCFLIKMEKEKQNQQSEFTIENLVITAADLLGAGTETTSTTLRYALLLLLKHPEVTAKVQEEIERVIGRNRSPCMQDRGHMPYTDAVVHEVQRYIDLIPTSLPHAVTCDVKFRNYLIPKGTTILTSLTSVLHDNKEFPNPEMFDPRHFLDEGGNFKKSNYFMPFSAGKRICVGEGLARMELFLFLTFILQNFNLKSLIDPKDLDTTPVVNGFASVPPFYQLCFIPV
Chain of CYP3A4 (P08684 whole entry): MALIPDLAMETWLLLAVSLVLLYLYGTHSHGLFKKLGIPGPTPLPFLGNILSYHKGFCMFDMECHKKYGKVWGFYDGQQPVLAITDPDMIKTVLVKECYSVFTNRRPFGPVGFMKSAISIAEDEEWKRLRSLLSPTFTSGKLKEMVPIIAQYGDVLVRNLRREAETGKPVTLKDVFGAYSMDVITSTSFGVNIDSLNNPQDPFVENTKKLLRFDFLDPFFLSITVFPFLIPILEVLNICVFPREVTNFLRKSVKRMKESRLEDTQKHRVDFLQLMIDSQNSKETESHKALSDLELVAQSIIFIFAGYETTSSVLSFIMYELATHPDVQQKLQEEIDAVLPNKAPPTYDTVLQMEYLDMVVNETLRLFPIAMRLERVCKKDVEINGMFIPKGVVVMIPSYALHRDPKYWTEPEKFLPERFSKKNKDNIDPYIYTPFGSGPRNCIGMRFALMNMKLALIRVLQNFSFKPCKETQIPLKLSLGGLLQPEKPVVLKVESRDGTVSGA

SMILES	% Compound Remaining, Plasma Stability, 15 min [1] [%]	% Compound Remaining, Plasma Stability, 30 min [1] [%]	% Compound Remaining, Plasma Stability, 60 min [1] [%]	% Compound Remaining, Plasma Stability, 120 min [1] [%]	PAMPA Category [3]	% Compound Remaining, Chemical Stability, 15 min [4] [%]	% Compound Remaining, Chemical Stability, 30 min [4] [%]	% Compound Remaining, Chemical Stability, 60 min [4] [%]	% Compound Remaining, Chemical Stability, 120 min [4] [%]	Plasma protein binding, % Fraction bound (plasma proteins)	n, CYP3A4 (CYP3A4)	Ka, CYP3A4 (CYP3A4) [M⁻¹]	Kd (CYP3A4) [µM]	ΔG, CYP3A4 (CYP3A4)	ΔH, CYP3A4 (CYP3A4) [kcal/mol]	ΔS, CYP3A4 (CYP3A4) [J/mol.K]	Type of inhibition, CYP2C19 (CYP2C19)	Ki (CYP2C19) [µM]	IC50 (CYP2C19) [µM]	other results
Cc1cc2cccnc2c2ncccc12.O.O=[N+]([O-])[O-].O=c1c([O-])c(-c2ccccc2)[nH]c2ccccc12.[Cu+2] [complex 1]	98.9 ± 2.5	94.0 ± 3.3	94.2 ± 2.3	91.2 ± 1.2	Low (those with log Papp < −5 were considered poorly permeable)	99.6 ± 3.6	99.9 ± 1.5	97.8 ± 3.4	96.6 ± 3.4	95% and 95.1 ± 1.0%	1.171	1.3e+07	0.0769	−34,899.9 J/mol	-21.05	−178.3	non-competitive	4.15 ± 0.71	61.2	Kd [2]: 7.59 ± 1.8 µM
Cc1cc2cccnc2c2ncccc12.F[B-](F)(F)F.O.O=c1c([O-])c(-c2ccccc2)[nH]c2ccccc12.[Cu+2] [complex 2]	98.3 ± 2.4	94.1 ± 2.4	96.6 ± 3.4	92.6 ± 2.2	Low (those with log Papp < −5 were considered poorly permeable)	99.6 ± 3.0	96.8 ± 2.4	94.0 ± 3.3	96.6 ± 2.4	93% and 92.9 ± 1.5%	1.095	1.59e+07	0.0629	-1.3352 kcal/mol	-12.37	−154.9	fully non-competitive	9.14 ± 0.8	77.1	Kd [5]: 8.56 ± 1 µM; CYP2C19 activity remaining, % of the basal activity (CYP2C19; at 100 μM): 36%
